Laboratory results taken from US8748462B2, “Spirocyclic GPR40 modulators” (Amgen Inc., priority 2008, dated 2014).

Legend:
human GPR40 [1] = biological target: T1, human GPR40 (Homo sapiens, UniProt O14842); assay: Cell-based aequorin assay; conditions: CHO cells stably transfected with GPR40 and aequorin; 0.01% HSA
T1 construct: expressed in transfected cells; host or cells: CHO cells stably transfected with GPR40 and Aequorin
Method: Cell-based aequorin assays were employed to characterize the modulatory activity of compounds on the GPR40 signaling pathway. In an exemplary assay, CHO cells were stably transfected with both GPR40 and Aequorin (Euroscreen). Cells were detached from the tissue culture dish with 2 mL of trypsin (0.25% (w/v)). Trypsinization was halted with 28 mL of Hanks Buffered Salt Solution containing 20 mM Hepes (H/HBSS) and 0.01% fatty acid-free human serum albumin (HSA). Coelantrazine is added to 1 ug/mL, and the cells were incubated for 2 hours at room temperature. Compounds were dissolved in DMSO for preparation of 10 mM stock solutions. Compounds were diluted in H/HBSS containing 0.01% HSA. Serial dilutions of the test compounds were prepared to determine dose response.
Aequorin luminescence measurements were made using an EG&G Berthold 96-well luminometer, and the response was measured over a 20 second interval after cells and compounds were mixed. The maximum relative light units was plotted to determine dose response. The EC50 (effective concentration to reach 50% maximal response) was determined from the dose response plot.

human GPR40 [2] = biological target: T1, human GPR40; assay: Inositol phosphate accumulation assay; type: cell-based; conditions: A9 cell line stably transfected with GPR40; 1 hour at 37° C.; read-out: IP3 EC50
Method: An A9 cell line stably transfected with GPR40 (A9_GPR40) was used in IP accumulation assays. A9_GPR40 cells were plated in 96-well plates containing 20,000 cells/well in DMEM containing 10% FBS. After the cells attached to the well surface, the media was replaced with inositol free DMEM containing 10% dialyzed FBS and 1 μCi, mL ^3H-inositol and incubated for 16 hours. Compounds were diluted in HBSS/10 mM LiCl containing a desired amount of HSA and added directly to cells. Following 1 hour incubation at 37° C., the media was replaced with 100 μL of 20 mM formic acid to quench the reaction. 50 μL of the extract was then added to 100 μL of SPA beads, incubated overnight, and measured on a TopCount the following day.

T1 sequence (O14842 whole entry): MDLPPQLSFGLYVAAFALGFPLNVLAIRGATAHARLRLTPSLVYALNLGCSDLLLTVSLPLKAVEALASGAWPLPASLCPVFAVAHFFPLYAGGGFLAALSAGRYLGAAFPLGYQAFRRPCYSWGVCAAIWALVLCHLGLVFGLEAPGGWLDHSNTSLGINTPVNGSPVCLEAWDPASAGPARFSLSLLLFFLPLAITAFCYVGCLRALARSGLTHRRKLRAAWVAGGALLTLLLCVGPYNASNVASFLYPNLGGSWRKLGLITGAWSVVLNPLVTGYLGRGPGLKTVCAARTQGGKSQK

EC50 (human GPR40 [1]) | EC50 (human GPR40 [2]) | SMILES
100 to 1000 nM | < 10 nM | COc1ccc(F)c(-c2ccc(COc3ccc4c(c3)C3(CCC4)CCC3C(=O)O)cc2C(OC)C(C)(C)C)c1 (single isomer, unassigned) [Example 155]
100 to 1000 nM | 10 to 100 nM | COc1ccc(F)c(-c2ccc(COc3ccc4c(c3)[C@]3(CC4)C[C@H]3C(=O)O)cc2[C@@H]2CCCC2(C)C)c1 (single isomer, unassigned) [Example 9]
100 to 1000 nM | < 10 nM | COc1ccc(F)c(-c2cc(F)c(COc3ccc4c(c3F)[C@]3(CCC4)C[C@H]3C(=O)O)cc2[C@H]2CCCC2(C)C)c1 (single isomer, unassigned) [Example 56]
10 to 100 nM | < 10 nM | COc1ccc(F)c(-c2ccc(COc3ccc4c(c3)[C@]3(CCC4)C[C@H]3C(=O)O)cc2[C@@H](OC)C(C)(C)C)c1 (single isomer, unassigned) [Example 46]
100 to 1000 nM | 10 to 100 nM | COc1ccc(F)c(-c2ccc(COc3ccc4c(c3)[C@]3(CCC4)C[C@H]3C(=O)O)cc2C2=CCCC2(C)C)c1 [Example 49]
10 to 100 nM | < 10 nM | COc1cc(-c2ccc(COc3ccc4c(c3)[C@]3(CCC4)C[C@H]3C(=O)O)cc2[C@@H]2CCCC2(C)C)c(F)cn1 [Example 48]
100 to 1000 nM | < 10 nM | COc1ccc(F)c(-c2ccc(COc3ccc4c(c3)[C@]3(CC4)C[C@H]3C(=O)O)cc2C2=CCCC2(C)C)c1 [Example 1]
100 to 1000 nM | < 10 nM | COc1ccc(F)c(-c2cc(F)c(COc3ccc4c(c3)[C@]3(CCC4)C[C@H]3C(=O)O)cc2[C@H]2CCCC2(C)C)c1 (single isomer, unassigned) [Example 45]
100 to 1000 nM | < 10 nM | COc1ccc(F)c(-c2ccc(COc3ccc4c(c3)C3(CC4)CCC3C(=O)O)cc2C(OC)C(C)(C)C)c1 (single isomer, unassigned) [Example 149]
100 to 1000 nM | 10 to 100 nM | COc1cccc(-c2ccc(COc3ccc4c(c3)[C@]3(CCC4)C[C@H]3C(=O)O)cc2[C@H](OC)C(C)(C)C)c1F (racemic) [Example 134]
100 to 1000 nM | 10 to 100 nM | CO[C@@H](c1cc(COc2ccc3c(c2)[C@]2(CCC3)C[C@H]2C(=O)O)ccc1-c1cccc(Cl)c1)C(C)(C)C (racemic) [Example 137]
10 to 100 nM | < 10 nM | COc1ccc(F)c(-c2ccc(COc3ccc4c(c3F)[C@]3(CCC4)C[C@H]3C(=O)O)cc2[C@@H](OC)C(C)(C)C)c1 (single isomer, unassigned) [Example 54]
10 to 100 nM | < 10 nM | COc1ccc(F)c(-c2ccc(COc3ccc4c(c3)[C@]3(CC4)C[C@H]3C(=O)O)cc2[C@H]2CCCCC2(C)C)c1 (single isomer, unassigned) [Example 15]
10 to 100 nM | < 10 nM | COc1ccc(F)c(-c2ccc(COc3ccc4c(c3F)[C@]3(CCC4)C[C@H]3C(=O)O)cc2[C@H]2CCCC2(C)C)c1 (single isomer, unassigned) [Example 51]
100 to 1000 nM | < 10 nM | COc1cc(-c2cc(F)c(COc3ccc4c(c3F)[C@]3(CCC4)C[C@H]3C(=O)O)cc2[C@H]2CCCC2(C)C)c(F)cn1 (single isomer, unassigned) [Example 57]
100 to 1000 nM | < 10 nM | COc1cc(-c2ccc(COc3ccc4c(c3)[C@]3(CC4)C[C@H]3C(=O)O)cc2[C@@H](OC)C(C)(C)C)c(F)cn1 (single isomer, unassigned) [Example 28]
10 to 100 nM | < 10 nM | COc1cc(-c2ccc(COc3ccc4c(c3F)[C@]3(CCC4)C[C@H]3C(=O)O)cc2[C@@H](OC)C(C)(C)C)c(F)cn1 (single isomer, unassigned) [Example 53]
10 to 100 nM | < 10 nM | COc1ccc(F)c(-c2ccc(COc3ccc4c(c3)[C@]3(CCC4)C[C@H]3C(=O)O)cc2[C@H]2CCCC2(C)C)c1 (single isomer, unassigned) [Example 47]
> 10000 nM | 1000 to 10000 nM | COc1ccc(F)c(-c2ccc(COc3ccc4c(c3F)[C@@]3(CCC4)C[C@@H]3C(=O)O)cc2[C@H]2CCCC2(C)C)c1 (single isomer, unassigned) [Example 52]
10 to 100 nM | < 10 nM | COc1ccc(F)c(-c2ccc(COc3ccc4c(c3)[C@]3(CC4)C[C@H]3C(=O)O)cc2[C@@H](OC)C(C)(C)C)c1 (single isomer, unassigned) [Example 12]

SMILES | EC50 (human GPR40 [1]) | EC50 (human GPR40 [2])
COc1ccc(F)c(-c2ccc(COc3ccc4c(c3)[C@]3(CC4)C[C@H]3C(=O)O)cc2CC(C)(C)C)c1 [Example 13] | 10 to 100 nM | < 10 nM
COCCOc1ccc(COc2ccc3c(c2)[C@]2(CCC3)C[C@H]2C(=O)O)cc1[C@@H]1CCCC1(C)C (single isomer, unassigned) [Example 131] | 1000 to 10000 nM | 100 to 1000 nM
COc1ccc(F)c(-c2ccc(COc3ccc4c(c3)[C@]3(CC4)C[C@H]3C(=O)O)cc2C2=CCCC2)c1 [Example 20] | 100 to 1000 nM | 10 to 100 nM
